Strand notation (5' to 3'): a small letter for the sugar, then the base; units joined by * are phosphorothioate-linked, units joined directly phosphodiester-linked; [ ] holds rarer units or linkages, { } end groups; capitals alone tell only the bases. k = constrained ethyl (cEt); [5mC] = 5-methylcytosine; d = 2'-deoxy (DNA)

We go through 50 substances from patent US11214803B2, “Modulators of YAP1 expression” (Ionis Pharmaceuticals, Inc., priority 2019, dated 2022).

The first data set concerns Yap1 mRNA. In words: Antisense inhibition of human Yap1 in A-431 cells by cEt gapmers, single dose (Example 1, RTS4814). The conditions noted are these: A-431 cells, 5,000 cells per well, free uptake, 2,000 nM modified oligonucleotide, approx. 48 hours, RTS4814, normalized to RIBOGREEN; Table 3. In kind it is cell-based. An outline of the steps:
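Free uptake of 2,000 nM 3-10-3 cEt gapmer (16-mer, full phosphorothioate, 5-methylcytosines) in A-431 cells for ~48 h. Yap1 mRNA quantified by qRT-PCR with set RTS4814, normalized to total RNA (RiboGreen), and expressed as % of untreated control; asterisked values target the amplicon region.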
As to “715537 (kA*k[5mC]*kT*dT*dG*dG*d[5mC]*dA*d[5mC]*d[5mC]*dA*dA*dA*kA*kG*k[5mC]; antisense) [Compound 715537]”, the “YAP1 (% UTC)” value is on record as 122 % UTC.

For “715594 (antisense kA*kT*kA*dT*dT*dT*d[5mC]*dT*dT*dT*dG*dG*d[5mC]*kA*kG*kA) [Compound 715594]”, the “YAP1 (% UTC)” value stood at 39 % UTC.

As for “715477 (antisense kA*kG*kA*d[5mC]*dA*d[5mC]*dA*dT*dA*d[5mC]*dT*d[5mC]*dT*kA*kG*kT) [Compound 715477]”, the “YAP1 (% UTC)” value turned out to be 61 % UTC.

Regarding “715438 (antisense kT*kT*k[5mC]*dA*dT*dG*dG*d[5mC]*dA*dA*dA*dA*d[5mC]*kG*kA*kG) [Compound 715438]”, the “YAP1 (% UTC)” value is listed as 82 % UTC.

For the substance “715474 (antisense k[5mC]*kT*kT*dT*d[5mC]*dT*dT*dT*dA*dT*d[5mC]*dT*dA*kG*k[5mC]*kT) [Compound 715474]”, the “YAP1 (% UTC)” value was 78 % UTC.

On to “715627 (antisense k[5mC]*kT*kA*d[5mC]*d[5mC]*dT*dG*dA*d[5mC]*dA*dT*dT*dT*kT*kG*kG) [Compound 715627]”, for which the “YAP1 (% UTC)” value was 88 % UTC.

Take “715480 (antisense kG*kG*kA*dA*dA*d[5mC]*d[5mC]*dA*dT*dT*dA*dT*dT*kA*k[5mC]*kT) [Compound 715480]”: the “YAP1 (% UTC)” value was determined as 23 % UTC.

As for “715618 (antisense kA*kT*kA*dA*dG*dA*d[5mC]*dG*dG*dA*dT*dA*dA*kA*kA*kA) [Compound 715618]”, the “YAP1 (% UTC)” value is listed as 101 % UTC.

As for “715426 (kA*kT*k[5mC]*d[5mC]*dA*dT*d[5mC]*dA*dG*dG*dA*dA*dG*kA*kG*kG; antisense) [Compound 715426]”, the “YAP1 (% UTC)” value was 80 % UTC.

For the substance “715615 (antisense k[5mC]*kG*kG*dA*dT*dA*dA*dA*dA*dA*dT*dT*dA*k[5mC]*kT*kT) [Compound 715615]”, the “YAP1 (% UTC)” value was 94 % UTC.

In the case of “715456 (antisense kA*kG*kT*dG*dA*dT*dA*dG*dG*dT*dG*d[5mC]*d[5mC]*kA*k[5mC]*kT) [Compound 715456]”, the “YAP1 (% UTC)” value is 96 % UTC.

As to “715621 (antisense kT*kA*kA*dA*dA*dA*dA*dT*dA*dA*dG*dA*d[5mC]*kG*kG*kA) [Compound 715621]”, the “YAP1 (% UTC)” value is given as 106 % UTC.

For the substance “715588 (kA*kG*k[5mC]*dA*dG*d[5mC]*dT*dA*dA*d[5mC]*dA*dG*d[5mC]*kT*kT*kG; antisense) [Compound 715588]”, the “YAP1 (% UTC)” value is 96 % UTC.

As to “715519 (kT*kT*k[5mC]*d[5mC]*dA*d[5mC]*dT*d[5mC]*dA*dA*dG*dT*dT*kA*k[5mC]*kA; antisense) [Compound 715519]”, the “YAP1 (% UTC)” value came out at 96 % UTC.

As to “715528 (kA*kA*kA*d[5mC]*d[5mC]*dT*dG*dA*dT*d[5mC]*d[5mC]*dT*dT*kT*kG*kA; antisense) [Compound 715528]”, the “YAP1 (% UTC)” value is recorded as 98 % UTC.

With “715459 (antisense k[5mC]*kT*k[5mC]*dG*dA*dG*dA*dG*dT*dG*dA*dT*dA*kG*kG*kT) [Compound 715459]”, the “YAP1 (% UTC)” value amounted to 93 % UTC.

Take “715549 (kG*kA*kA*dG*dT*dT*dG*dT*dT*dG*dA*d[5mC]*d[5mC]*kA*kA*k[5mC]; antisense) [Compound 715549]”: the “YAP1 (% UTC)” value was found to be 66 % UTC.

The same data set, now with this note: Table 1; A-431 cells, free uptake, 2,000 nM, approximately 48 hours, RTS4814; Yap1 mRNA relative to untreated control cells.
Consider “715604 (antisense kT*kA*kG*d[5mC]*dA*d[5mC]*dA*dG*dA*dA*dT*dT*d[5mC]*k[5mC]*k[5mC]*kA) [Compound 715604]”, for which the “YAP1 (% UTC)” value is 107 % UTC.

As for “715577 (kG*k[5mC]*kA*dT*dT*d[5mC]*dA*d[5mC]*dA*dG*dA*dG*dT*kT*kA*kA; antisense) [Compound 715577]”, the “YAP1 (% UTC)” value turned out to be 21 % UTC.

On to “715568 (kA*kA*kG*dG*dT*dA*dG*dG*dA*dT*dA*dA*dA*kT*kG*kA; antisense) [Compound 715568]”, for which the “YAP1 (% UTC)” value worked out at 116 % UTC.

For “715526 (kA*k[5mC]*kT*dT*dA*d[5mC]*dT*dT*dT*dA*dA*dG*dA*kA*kG*kT; antisense) [Compound 715526]”, the “YAP1 (% UTC)” value is reported as 112 % UTC.

With “715454 (antisense kA*kT*kA*dG*dG*dT*dG*d[5mC]*d[5mC]*dA*d[5mC]*dT*dG*kT*kT*kA) [Compound 715454]”, the “YAP1 (% UTC)” value is recorded as 78 % UTC.

Take “715457 (antisense kA*kG*kA*dG*dT*dG*dA*dT*dA*dG*dG*dT*dG*k[5mC]*k[5mC]*kA) [Compound 715457]”: the “YAP1 (% UTC)” value was found to be 47 % UTC.

With “715589 (k[5mC]*k[5mC]*kA*dG*d[5mC]*dA*dG*d[5mC]*dT*dA*dA*d[5mC]*dA*kG*k[5mC]*kT; antisense) [Compound 715589]”, the “YAP1 (% UTC)” value is listed as 107 % UTC.

Staying with this data set, now noted: Table 2; A-431 cells, free uptake, 2,000 nM, approximately 48 hours, RTS4814; Yap1 mRNA relative to untreated control cells.
Regarding “715599 (antisense kT*kT*k[5mC]*d[5mC]*d[5mC]*dA*dA*dG*d[5mC]*dT*dA*d[5mC]*d[5mC]*k[5mC]*kA*kA) [Compound 715599]”, the “YAP1 (% UTC)” value stood at 82 % UTC.

“715443 (antisense kT*kT*k[5mC]*dA*d[5mC]*dT*dG*dG*dA*dG*d[5mC]*dA*d[5mC]*kT*k[5mC]*kT) [Compound 715443]”: the “YAP1 (% UTC)” value amounted to 40 % UTC.

With “715557 (kG*kG*kA*dA*dG*dT*dT*dA*dT*dT*d[5mC]*dA*dG*k[5mC]*kA*kG; antisense) [Compound 715557]”, the “YAP1 (% UTC)” value was 46 % UTC.

As to “715533 (k[5mC]*k[5mC]*kT*dA*dA*d[5mC]*dA*dA*d[5mC]*d[5mC]*dT*dG*dG*kT*kT*kT; antisense) [Compound 715533]”, the “YAP1 (% UTC)” value was found to be 97 % UTC.

Consider “715503 (antisense k[5mC]*k[5mC]*k[5mC]*d[5mC]*dA*dG*dA*d[5mC]*dT*dT*dA*dA*dT*kT*k[5mC]*kA) [Compound 715503]”, for which the “YAP1 (% UTC)” value came to 136 % UTC.

Turning to “715539 (kA*kG*kA*dT*d[5mC]*dT*d[5mC]*dA*d[5mC]*dT*dG*dA*d[5mC]*k[5mC]*kT*kA; antisense) [Compound 715539]”, the “YAP1 (% UTC)” value is 102 % UTC.

As to “715482 (antisense k[5mC]*kT*kT*dT*dG*dG*dA*dA*dA*d[5mC]*d[5mC]*dA*dT*kT*kA*kT) [Compound 715482]”, the “YAP1 (% UTC)” value was determined as 58 % UTC.

Turning to “715632 (antisense kA*kT*k[5mC]*d[5mC]*dA*dA*dT*dT*dA*dT*dG*dT*d[5mC]*k[5mC]*k[5mC]*kA) [Compound 715632]”, the “YAP1 (% UTC)” value is listed as 109 % UTC.

As for “715404 (kA*kA*kG*dA*dA*dG*dG*dA*dG*dT*d[5mC]*dG*dG*kG*k[5mC]*kA; antisense) [Compound 715404]”, the “YAP1 (% UTC)” value was 64 % UTC.

As to “715611 (antisense k[5mC]*kT*kT*dT*dA*dA*dG*d[5mC]*d[5mC]*dA*d[5mC]*dA*dT*kG*kG*kT) [Compound 715611]”, the “YAP1 (% UTC)” value was determined as 106 % UTC.

“715623 (antisense k[5mC]*k[5mC]*kT*dA*dA*dG*dA*dG*dT*dA*dA*dA*dA*kA*kA*kT) [Compound 715623]”: the “YAP1 (% UTC)” value was 113 % UTC.

As for “715593 (antisense kA*kT*kT*dT*d[5mC]*dT*dT*dT*dG*dG*d[5mC]*dA*dG*kA*kG*kA) [Compound 715593]”, the “YAP1 (% UTC)” value is on record as 60 % UTC.

On to “715578 (kT*kG*kG*d[5mC]*dA*dT*dT*d[5mC]*dA*d[5mC]*dA*dG*dA*kG*kT*kT; antisense) [Compound 715578]”, for which the “YAP1 (% UTC)” value was 50 % UTC.

“715428 (kT*k[5mC]*k[5mC]*d[5mC]*dA*dT*d[5mC]*d[5mC]*dA*dT*d[5mC]*dA*dG*kG*kA*kA; antisense) [Compound 715428]”: the “YAP1 (% UTC)” value turned out to be 106 % UTC.

Regarding “715524 (kA*k[5mC]*kT*dT*dT*dA*dA*dG*dA*dA*dG*dT*dA*kT*k[5mC]*kT; antisense) [Compound 715524]”, the “YAP1 (% UTC)” value is on record as 93 % UTC.

“715581 (kA*kA*kG*d[5mC]*d[5mC]*dT*dG*dT*d[5mC]*dT*dG*dG*dA*kA*kT*kA; antisense) [Compound 715581]”: the “YAP1 (% UTC)” value came out at 106 % UTC.

Take “715617 (antisense kA*kA*kG*dA*d[5mC]*dG*dG*dA*dT*dA*dA*dA*dA*kA*kT*kT) [Compound 715617]”: the “YAP1 (% UTC)” value is 98 % UTC.

Consider “715584 (kG*kG*kT*d[5mC]*dT*dG*dG*dA*dA*d[5mC]*dA*dG*dA*kT*kT*kA; antisense) [Compound 715584]”, for which the “YAP1 (% UTC)” value is on record as 96 % UTC.

For “715449 (antisense kT*kT*k[5mC]*dT*d[5mC]*dA*dA*dT*dT*d[5mC]*d[5mC]*dT*dG*kA*kG*kA) [Compound 715449]”, the “YAP1 (% UTC)” value is reported as 124 % UTC.

Take “715551 (kA*kT*kA*dG*dG*dA*dA*dG*dT*dT*dG*dT*dT*kG*kA*k[5mC]; antisense) [Compound 715551]”: the “YAP1 (% UTC)” value turned out to be 82 % UTC.

In the case of “715473 (antisense kT*k[5mC]*kT*dT*dT*dA*dT*d[5mC]*dT*dA*dG*d[5mC]*dT*kT*kG*kG) [Compound 715473]”, the “YAP1 (% UTC)” value is listed as 32 % UTC.

As for “715575 (k[5mC]*k[5mC]*kT*dT*dT*dA*d[5mC]*d[5mC]*dA*dA*dA*dA*d[5mC]*kG*kA*kG; antisense) [Compound 715575]”, the “YAP1 (% UTC)” value was found to be 134 % UTC.

As for “715542 (kT*kA*k[5mC]*dT*dT*dG*dA*dA*dG*dA*dA*d[5mC]*dT*kA*kT*kT; antisense) [Compound 715542]”, the “YAP1 (% UTC)” value came out at 120 % UTC.

As to “715461 (antisense kT*k[5mC]*kA*dT*d[5mC]*dT*d[5mC]*dG*dA*dG*dA*dG*dT*kG*kA*kT) [Compound 715461]”, the “YAP1 (% UTC)” value turned out to be 153 % UTC.

As to “715479 (antisense kA*kA*kA*d[5mC]*d[5mC]*dA*dT*dT*dA*dT*dT*dA*d[5mC]*kT*k[5mC]*k[5mC]) [Compound 715479]”, the “YAP1 (% UTC)” value was 38 % UTC.

Turning to “715626 (antisense kA*k[5mC]*k[5mC]*dT*dG*dA*d[5mC]*dA*dT*dT*dT*dT*dG*kG*kA*kG) [Compound 715626]”, the “YAP1 (% UTC)” value was determined as 64 % UTC.
